From US4752614A, “Pharmaceutical compositions of tellerium and selenium compounds for the induction of in vivo and in vitro production of cytokines” (Bar-Ilan University, priority 1987, dated 1988)
“Also recorded” adds a separate entry of the source.

Key:
IL-2 [1] = test: In vitro induction of IL-2 from mouse spleen cells (Example 7); format: cell-based, male Balb-c mice
Protocol: (§1) This example describes the in vitro making of IL-2 and CSF from mouse spleen cells using the compound of Example 1 as the extrinsic stimulating agent.
(§2) Spleens were removed from 15, male Balb-c mice 6 to 8 weeks of age. The spleen cells were pushed through stainless steel 60 mesh (U.S. standard) nets resting in 5 mm Petri dishes containing PBS in order to separate the cells. The cells were then collected into centrifuge tubes and spun at 1000 rpm for 10 minutes. The supernatant was discarded and cells were treated with 5 ml of hypotonic buffer (0.15M NH4 Cl; 0.01M KHCO3 dissolved in double distilled water, pH 7.2) for exactly two minutes. Thereafter, PBS was added to the cells and the test tubes were centrifuged for 10 minutes at 1000 rpm. The cells were rinsed twice and counted in a heamocytometer using trypan blue to test for viability. The cells were brought to a concentration of 10^7 viable cells/ml. The cells were contacted with varying amounts of the compound of Example 1 in 1 ml of 40% DMSO 60% PBS.

CSF = test: In vitro induction of colony stimulating factor (CSF) from mouse spleen cells (Example 7); format: cell-based, male Balb-c mice
Protocol: as §1, §2

IL-2 [2] = test: IL-2 secretion by mouse spleen cells in vitro, CTLD proliferation (Example 17); format: cell-based, male Balb/c mice; conditions: 24 hours, 1 μg/ml of cell mixture
Protocol: The compounds listed below were tested in vitro at various concentrations that ranged from 10 μg/ml cells to 1×10^-6 μg/ml of cell mixtures. Cells were obtained from spleens of male Balb/c mice 6-8 weeks of age. Spleens were pushed through a stainless steel 60 mesh strainer to separate cells.

West Nile virus (WNV) = test: West Nile virus infection in mice (Example 22); format: in vivo, ICR mice; conditions: for # Alive/Total Animals: Table A; for # Alive/Total Animals / # Alive/Total: preliminary; for # Alive/Total: Table B
Protocol: The compounds may be used as anti-bacterial or anti-viral agents in plants or in animals. Virus infections such as West Nile virus infections in mice are susceptible to the compound of the Example 1 at a dose of 10 μg/day/mouse. Plant bacterial infections such as crown gall caused by Agrobacterium tumefaciens may be treated or prevented by the application of a 0.1% solution of compounds of the invention.
The effect of the compound of Example 1 on an infection with West Nile virus (WNV) was determined. WNV is a toga virus of the flavivirus group, a positive single stranded RNA virus, which when injected IP to mice usually kills them within 5-8 days as a result of extensive damage to the central nervous system. For this study ICR mice (3 wks of age) were injected IP with the virus at the concentration of 10^3 or 10^4 LD 50 units/mouse. Injections of 10 μg/0.2 ml PBS/mouse of the compound of Ex. 1 were given on day -1 (one day prior to injection of virus) and 6 days after injection of virus.
In a second experiment, mice were injected with 10^3 IPLD50 virus and received injections of the compound of Example 1 (1 μg/0.2 ml PBS/mouse) on days -1, 1, 2 and 4.

WNV = WNV yield in mouse macrophage cultures (Example 23); format: cell-based, ICR mouse macrophage; conditions: 72 h; for Virus Yield: preliminary
Protocol: Varying amounts of the compound of Example 1 (5 μg, 1 μg, 0.1 μg) were incubated with a monolayer of mouse macrophages for 24 h. […] All cultures were then infected with 10^4 PFU/plate. After 72 h incubation the supernatants were collected and the virus was titrated against Vera cells.

Cl[TeH]1(Cl)(Cl)OCCO1 [Example 1]
IL-2 (IL-2 [1]; 5 pg): 12,000 cpm
IL-2 (IL-2 [1]; 50 pg): 38,000 cpm
IL-2 (IL-2 [1]; 500 pg): 30,000 cpm
IL-2 (IL-2 [1]; 5 ng): 15,000 cpm
IL-2 (IL-2 [1]; 50 ng): 6,000 cpm
IL-2 (IL-2 [1]; 500 ng): 5,000 cpm
IL-2 (IL-2 [1]; 5 μg): 5,000 cpm
IL-2 (IL-2 [1]; 50 μg): 5,000 cpm
CSF (CSF; 5 pg): 140 colonies/dish
CSF (CSF; 50 pg): 260 colonies/dish
CSF (CSF; 500 pg): 175 colonies/dish
CSF (CSF; 5 ng): 120 colonies/dish
CSF (CSF; 50 ng): 75 colonies/dish
CSF (CSF; 500 ng): 25 colonies/dish
CSF (CSF; 5 μg): 5 colonies/dish
CSF (CSF; 50 μg): 2 colonies/dish
Spleen Cells (IL-2 activity) (IL-2 [2]): 14,600 cpm
activation at 1 µg/mL (IL-2 [2]; Mus musculus, read-out: Spleen Cells, percent in parentheses (increase over control)): 472%
susceptibility of West Nile virus infections in mice (West Nile virus (WNV); 10 μg/day/mouse): susceptible
survival beyond day 8 (West Nile virus (WNV); 10^3 IPLD50, 1 μg/mouse days -1, 1, 2 and 4): Two out of the remaining three survived an additional 8 days; also recorded: the third remained alive without any manifestations of clinical symptoms
# Alive/Total Animals (West Nile virus (WNV); 10^3 LD50 virus, 10 μg/mouse days -1 and 6, after 8 days): 3/5
# Alive/Total Animals (West Nile virus (WNV); 10^4 LD50 virus, 10 μg/mouse days -1 and 6, after 8 days): 3/5
# Alive/Total Animals (West Nile virus (WNV); no virus (0), 10 μg/mouse days -1 and 6): 6/6
# Alive/Total (West Nile virus (WNV); 10^3 IPLD50, 1 μg/mouse days -1, 1, 2 and 4, day 8): 3/5
# Alive/Total (West Nile virus (WNV); compound alone, 1 μg/mouse days -1, 1, 2 and 4, day 8): 5/5
reduction of virus yield (WNV; 0.1 μg): ten
Virus Yield (WNV; 0.1 μg/plate): 2 × 10^3 PFU/ml
reduction of virus yield (WNV; 1 μg): 40 fold
Virus Yield (WNV; μg/plate (text: 1 μg)): 5 × 10^2 PFU/ml
